“Also recorded” adds a separate entry of the source.
What was measured:
Sprague-Dawley rats [1] = test: Pre-dose and post-dose serum calcium (bone mobilization) after a single oral dose in rats; type: in vivo, rat; conditions: average of 6 rats; for Post-Dose serum calcium: about 24 h after a single 1 nmol oral dose (gavage, vegetable oil); for Pre-Dose serum calcium: baseline, about 24 h before sacrifice, before the 1 nmol oral dose
Procedure: Weanling, male Sprague-Dawley rats (6/group) were placed on a vitamin D-deficient diet for a total of 5 weeks. During the first three weeks, the animals were fed a normal calcium diet (Diet 11+0.47% Ca+AEK supplement) and the last two weeks they were fed a low calcium diet (Diet 11+0.02% Ca+AEK supplement). Approximately 24 hours prior to sacrifice, animals were tail bled and then dosed with 1 nmol of the respective compounds. The doses were delivered orally in 100 microliters of vegetable oil by gavage. Serum was collected approximately 24 hour post-dose and it, along with the pre-dose serum, were subjected to total calcium analysis using atomic absorption spectrometry.

HL-60 cells = test: Differentiation of HL-60 promyelocytes into monocytes; type: cell-based; conditions: FIG. 4; result in words
Procedure: FIG. 4 is a graph illustrating the percent HL-60 cell differentiation as a function of the concentration of 1α-hydroxy-2-methylene-19-nor-homopregnacalciferol and of 1α,25-dihydroxyvitamin D3;
The differentiation of HL-60 promyelocytic into monocytes was determined as described by Ostrem et al (J. Biol. Chem. 262, 14164-14171, 1987).

Sprague-Dawley rats [2] = test: Serum calcium (bone calcium mobilization) after chronic i.p. doses in vitamin D-deficient rats; type: in vivo, rat; conditions: for Serum Calcium (bone calcium mobilization): vitamin D-deficient rats, low Ca diet, average ± SE, 5 animals
Procedure: (§1) Male, weanling Sprague-Dawley rats were placed on Diet 11 (0.47% Ca) diet+AEK for 11 days, followed by Diet 11 (0.02% Ca)+AEK for 31 days. Dosing (i.p.) began 7 days prior to sacrifice. Doses were given on a daily basis, 24 hours apart. The first 10 cm of the intestine was collected for gut transport studies and serum was collected for bone Ca mobilization analysis. The results are reported in Table 1 and illustrated in the graph of FIG. 2.

Sprague-Dawley rats [3] = test: Intestinal calcium transport after chronic i.p. doses in vitamin D-deficient rats; type: in vivo, rat; conditions: for Intestinal Calcium Transport (S/M): vitamin D-deficient rats, low Ca diet, average ± SE, 5 animals
Procedure: as §1

[4] = biological target: T1, vitamin D pig intestinal nuclear receptor (Sus scrofa, UniProt A3RGC1); test: Competitive binding of [3H]-1,25-(OH)2-D3 to the porcine intestinal vitamin D receptor; conditions: FIG. 1, result in words
T1 construct: from tissue; host or cells: pig intestine (nuclear receptor preparation)
T1 sequence (A3RGC1 1-427): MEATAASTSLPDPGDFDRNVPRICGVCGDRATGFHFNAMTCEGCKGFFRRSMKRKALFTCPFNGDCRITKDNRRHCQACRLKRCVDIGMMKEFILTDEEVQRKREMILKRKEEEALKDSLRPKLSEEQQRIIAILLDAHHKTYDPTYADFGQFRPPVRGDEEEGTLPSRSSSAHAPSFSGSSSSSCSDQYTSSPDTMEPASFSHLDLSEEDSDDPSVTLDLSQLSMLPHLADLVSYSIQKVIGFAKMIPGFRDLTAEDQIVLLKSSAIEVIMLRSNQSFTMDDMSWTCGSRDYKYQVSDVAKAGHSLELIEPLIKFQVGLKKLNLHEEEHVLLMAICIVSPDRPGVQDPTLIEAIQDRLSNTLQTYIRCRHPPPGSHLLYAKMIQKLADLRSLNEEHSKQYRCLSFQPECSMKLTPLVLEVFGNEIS
Text: FIG. 1 is a graph illustrating the relative activity of 1α-hydroxy-2-methylene-19-nor-homopregnacalciferol and 1α,25-dihydroxyvitamin D3 to compete for binding of [^3H]-1,25-(OH)2-D3 to the vitamin D pig intestinal nuclear receptor;
The introduction of a methylene group to the 2-position of 1α-hydroxy-19-nor-homopregnacalciferol had little or no effect on binding to the porcine intestinal vitamin D receptor, as compared to 1α,25-dihydroxyvitamin D3.
Competitive binding of the analogs to the porcine intestinal receptor was carried out by the method described by Dame et al (Biochemistry 25, 4523-4534, 1986).

[5] = test system: 24-hydroxylase (240Hase) gene promoter in ROS 17/2.8 (bone) cells; test: Transcriptional activity, 24-hydroxylase promoter luciferase reporter in bone cells; type: cell-based
Procedure: (§2) Transcriptional activity was measured in two different cell lines. ROS 17/2.8 (bone) or LLC (kidney) cells were stably transfected with a 24-hydroxylase (240Hase) gene promoter upstream of a luciferase reporter gene (Arbour et al, 1998). Cells were given a range of doses. Sixteen hours after dosing the cells were harvested and luciferase activities were measured using a luminometer. The EC50 of 1α-hydroxy-2-methylene-19-nor-homopregnacalciferol is about 10 times lower in bone cells than kidney cells. […] The graphs of FIGS. 5 and 6 are representative of 4 to 5 independent experiments. In FIGS. 5 and 6, RLU means relative luciferase units.

[6] = test system: 24-hydroxylase (240Hase) gene promoter in LLC (kidney) cells; test: Transcriptional activity, 24-hydroxylase promoter luciferase reporter in kidney cells; type: cell-based; conditions: 16 h after dosing, FIG. 6, result in words
Procedure: as §2

[7] = listed as 1α-hydroxy-2-methylene-19-nor-homopregnacalciferol

Row | SMILES | Post-Dose serum calcium (Sprague-Dawley rats [1]) [mg/dL] | Pre-Dose serum calcium (Sprague-Dawley rats [1]) [mg/dL] | HL-60 differentiation potency compared to 1,25(OH)2D3 (HL-60 cells) | Serum Calcium (bone calcium mobilization) (Sprague-Dawley rats [2]; 250 pmol/day/7 days i.p.) [mg/100 ml] | Serum Calcium (bone calcium mobilization) (Sprague-Dawley rats [2]; 500 pmol/day/7 days i.p.) [mg/100 ml] | Bone calcium mobilization activity (raising serum calcium) compared to 1,25(OH)2D3 (Sprague-Dawley rats [2]; Table 1, FIG. 3 and FIG. 7, result in words) | Intestinal Calcium Transport (S/M) (Sprague-Dawley rats [3]; 250 pmol/day/7 days i.p.) | Intestinal Calcium Transport (S/M) (Sprague-Dawley rats [3]; 500 pmol/day/7 days i.p.) | Intestinal calcium transport activity compared to 1,25(OH)2D3 (Sprague-Dawley rats [3]; Table 1 and FIG. 2, result in words) | Binding to the vitamin D receptor compared to 1,25-(OH)2D3 [4, 7] | Binding to the vitamin D receptor compared to 1,25-(OH)2D3 ([4]; listed as 2 MHP) | EC50 in bone cells relative to kidney cells (times lower) ([5]; ROS 17/2.8 (bone) versus LLC (kidney) cells, luciferase reporter) | Transcriptional activity in bone cells ([5]; ROS 17/2.8 cells, 16 h after dosing, FIG. 5, result in words) | Transcriptional activity in kidney cells [6, 7] | Transcriptional activity in kidney cells ([6]; listed as 2 MHP)
1 | C=C1[C@H](O)CC(=C/C=C2\CCC[C@]3(C)[C@@H]([C@@H](C)CCCC(C)(C)O)CC[C@@H]23)C[C@H]1O [2-methylene-19-nor-20(S)-1α,25-dihydroxyvitamin D3] | 7.33 | 4.45 |  |  |  |  |  |  |  |  |  |  |  |  | 
2 | C=C1[C@H](O)CC(=C/C=C2\CCC[C@@]3(C)C2CCC3C(C)C)C[C@H]1O (stereo partly drawn) [2MHP, 1α-hydroxy-2-methylene-19-nor-homopregnacalciferol] | 4.36 | 4.86 | almost as potent as 1,25(OH)2D3; also recorded: only slightly less active than 1,25-(OH)2D3 | 4.84 ± 0.37 | 3.96 ± 0.19 | very little bone calcium mobilization activity; also recorded: significantly less potent than 1,25(OH)2D3 | 3.22 ± 0.14 | 3.90 ± 0.38 | very little activity; also recorded: significantly less than that of 1,25-(OH)2D3 | bound equally well to the porcine receptor as compared to the standard 1,25-(OH)2D3 | slightly less active than 1,25(OH)2D3 | about 10 times | has transcriptional activity in bone cells; also recorded: significant transcriptional activity | greater than or equivalent to 1,25(OH)2D3 | has transcriptional activity in kidney cells; also recorded: significant transcriptional activity
3 | C=C1/C(=C\C=C2/CCC[C@]3(C)[C@@H]([C@H](C)CCCC(C)(C)O)CC[C@@H]23)C[C@@H](O)C[C@@H]1O [1,25-(OH)2D3, 1α,25-dihydroxyvitamin D3, reference compound] | 5.42 | 4.51 |  | 7.40 ± 0.47 | 7.20 ± 0.33 |  | 5.21 ± 0.73 | 6.85 ± 0.79 |  |  |  |  |  |  | 
